Tested on: human hair dermal papilla cells, HHDPC
Assay: Cellular dielectric spectroscopy (CDS) in dermal papilla cells
Type: cell-based
Description: Cellular dielectric spectroscopy (CDS) was conducted in an assay of dermal papilla cells (i.e., human hair dermal papilla cells, HHDPC) with bimatoprost and Cmpds IVc and IVb. As known in the art, CDS is a real-time, non-invasive, label-free, high-throughput, cell-based assay which measures electrical cell impedance. Without wishing to be bound by any theory, it is believed that GPCR activation induces changes in cell morphology, cell-cell interaction, and cell adherence which manifest as a change in cell impedance.

## CCCC(=O)O[C@H](/C=C/[C@@H]1[C@@H](C/C=C\CCCC(=O)NCC)[C@@H](O)C[C@H]1O)CCc1ccccc1 [Cmpd IVc, 15-butyryl bimatoprost]
  change in cell impedance: not observed to provide a change in cell impedance
Cell impedance, tested range 10^−4 to 10^−13 mol/L
  EC50: could not be determined

From patent US20130324606A1, “Ester Derivatives of Bimatoprost Compositions and Methods” (ALLERGAN, INC., priority 2011, published 2013)
